Results from patent US11571407B2, “Bicalutamide analogs or (S)-bicalutamide as exocytosis activating compounds for use in the treatment of a lysosomal storage disorder or glycogenosis” (BCN PEPTIDES, S.A., priority 2013, dated 2023).
Marks after values point to notes of the source that are not given here.

Assays:
[1] = system: fibroblasts from patients affected by different lysosomal storage diseases; assay: Cell viability, MTT assay; type: cell-based, human; design: key to Decrease of Cell Viability (%): N.S.: non significant decrease; conditions: 72 h
Method: (§1) Fibroblasts from thirteen patients affected by seven different lysosomal storage diseases (Fabry, Gaucher, Hurler, Niemann-Pick type A/B, Sanfilippo A, Sanfilippo B and Tay-Sachs) were cultured in DMEM (Dulbecco's modified Eagles medium) with 10% fetal bovine serum and in the presence of antibiotics (penicillin and streptomycin), at 37° C. with 5% CO2. All reagents were purchased from PAA Laboratories (Velizy-Villacoublay, France). The fibroblasts of the patients were selected on the basis of availability of fibroblasts and measurable residual activity. The use of human samples was approved by the Ethical Committee of Hospital Clinic, Barcelona
Fibroblasts of early passage (between 5 and 9 passages) were plated in 6- or 24-well plates depending on the test and were treated for 72 hours with increasing concentrations (10 nmol/L, 100 nmol/L, 1 μmol/L, 10 μmol/L, 50 μmol/L and 100 μmol/L) of bicalutamide (Sigma-Aldrich, St. Louis, USA) and (R)- and (S)-bicalutamide (Toronto Research Chemicals Inc., Toronto (Ontario), Canada). Cell viability was evaluated in each cell line for each concentration using the 3-[4,5-dimethylthiazol-2-yl]-2,5-diphenyl tetrazolium bromide (MTT) assay (Sigma-aldrich, St. Louis, USA) described by Sumantran V. N. Cellular chemosensitivity assays: an overview. Methods Mol. Biol. (2011), 731, 219-236.
Fibroblasts from thirteen patients with different lysosomal storage diseases (four patients affected by Sanfilippo B disease patients with different genotypes, three Sanfilippo A disease patients with different genotypes, two Tay-Sachs disease patients with the same genotype, one Gaucher disease patient, one Niemann-PickA/B disease patient, one Hurler disease patient and one Fabry disease patient) were independently treated with different concentrations of (R)- and (S)-bicalutamide (50 and 100 μM). Cell viability was evaluated for each treatment in each cell line using the MTT assay.

[2] = system: fibroblasts from patients affected by different lysosomal storage diseases; assay: Determination of lysosomal exocytosis (β-hexosaminidase activity in the culture medium); type: cell-based, human; conditions: for Increase in exocytosis (%), Median: Table 4 median over the patients' fibroblasts; for Increase in exocytosis (%), Median / Increase in exocytosis (%): 72 h
Method: as §1
Fibroblasts cultured for 72 h in 24 well-plates in the presence or absence of bicalutamide, (S)-bicalutamide, (S)-bicalutamide analogs or (R)-bicalutamide at different concentrations in triplicate (10 nmol/L, 100 nmol/L, 1 μmol/L, 10 μmol/L, 50 μmol/L and 100 μmol/L), were rinsed with physiological saline. The cells were lysed by using 3 freeze-thaw cycles. Then protein concentration was determined by using the Lowry method. Protein lysates (10 μg) were seeded in 96-well plates and the enzymatic activity of the enzyme involved in each disease was determined in triplicate by means of fluorimetric artificial substrates: 4-methylumbelliferyl-α-N-sulphoglucosaminide for Sanfilippo A, 4-methylumbelliferyl-2-acetamido-2 deoxy-α-D-glucopyranoside for Sanfilippo B, 4-methylumbelliferyl-α-L-iduronide for Hurler, 4-methylumbelliferyl-N-acetyl-β-D-glucosaminide for Tay-sachs, 4-methylumbelliferyl-β-D-glucopyranoside for Gaucher, 4-methylumbelliferyl-α-Galactopiranosid for Fabry disease, and 6-hexadecanoylamino-4-methylumbelliferyl-P-colline for Niemann-Pick type AB. The activity of the enzyme β-hexosaminidase was assayed by using 4-methylumbelliferyl-2 acetamido-2 deoxy-β-D-glucopyranoside as artificial substrate [Annunziata et al., Study of influence of sex and age on human serum lysosomal enzymes by using 4-methylumbelliferyl substrates. Clin. Chim. Acta.
Lysosomal exocytosis was monitorized by measuring the enzymatic activity of the lysosomal enzyme β-hexosaminidase in the culture medium [Xu M, et al, δ-Tocopherol reduces lipid accumulation in Niemann-Pick type C1 and Wolman cholesterol storage disorders. […] The fibroblasts were previously treated with different concentrations of bicalutamide, (S)-bicalutamide or (R)-bicalutamide (10 nmol/L, 100 nmol/L, 1 μmol/L, 10 μmol/L, 50 μmol/L and 100 μmol/L) in triplicate in 24-well plates. At 0, 24, 48 and 72 hours, 30 μL of culture medium was aliquoted for the subsequent β-hexosaminidase activity assay.
Fibroblasts from two patients affected by Sanfilippo B and Hurler diseases were treated with different concentrations of bicalutamide (racemic mixture at increasing concentrations of 0.01, 0.1, 1, 10 and 100 μM). And the increase in lysosomal exocytosis was determined by analyzing the enzymatic activity of the lysosomal enzyme β-hexosaminidase in the culture medium.
Fibroblasts from thirteen patients affected by different lysosomal storage diseases (four Sanfilippo B disease patients with different genotypes, three Sanfilippo A disease patients with different genotypes, two Tay-Sachs disease patients with the same genotype, one Gaucher disease patient, one Niemann-pick type A/B disease patient, one Hurler disease patient, and one Fabry disease patient) were independently treated with different concentrations of (R)- and (S)-bicalutamide (50 and 100 μM) for 72 hours.

androgen receptors = conditions: cited from earlier work

C[C@@](O)(CS(=O)(=O)c1ccc(F)cc1)C(=O)Nc1ccc(C#N)c(C(F)(F)F)c1 (single isomer, unassigned) [(R)-BICALUTAMIDE (2)]
Decrease of Cell Viability (%) ([1]; Table 3 patient 1, Sanfilippo B fibroblasts, 50 μM): 20* % | Decrease of Cell Viability (%) ([1]; Table 3 patient 1, Sanfilippo B fibroblasts, 100 μM): 37* % | Decrease of Cell Viability (%) ([1]; Table 3 patient 2, Sanfilippo B fibroblasts, 50 μM): 10* % | Decrease of Cell Viability (%) ([1]; Table 3 patient 2, Sanfilippo B fibroblasts, 100 μM): 26* % | Decrease of Cell Viability (%) ([1]; Table 3 patient 3, Sanfilippo B fibroblasts, 50 μM): 40* % | Decrease of Cell Viability (%) ([1]; Table 3 patient 3, Sanfilippo B fibroblasts, 100 μM): 52* % | Decrease of Cell Viability (%) ([1]; Table 3 patient 4, Sanfilippo B fibroblasts, 50 μM): 0% | Decrease of Cell Viability (%) ([1]; Table 3 patient 4, Sanfilippo B fibroblasts, 100 μM): 25* % | Decrease of Cell Viability (%) ([1]; Table 3 patient 5, Sanfilippo A fibroblasts, 50 μM): N.S. | Decrease of Cell Viability (%) ([1]; Table 3 patient 5, Sanfilippo A fibroblasts, 100 μM): N.S. | Decrease of Cell Viability (%) ([1]; Table 3 patient 6, Sanfilippo A fibroblasts, 50 μM): 0% | Decrease of Cell Viability (%) ([1]; Table 3 patient 6, Sanfilippo A fibroblasts, 100 μM): 0% | Decrease of Cell Viability (%) ([1]; Table 3 patient 7, Sanfilippo A fibroblasts, 50 μM): 0% | Decrease of Cell Viability (%) ([1]; Table 3 patient 7, Sanfilippo A fibroblasts, 100 μM): 0% | Decrease of Cell Viability (%) ([1]; Table 3 patient 8, Tay-Sachs fibroblasts, 50 μM): 0% | Decrease of Cell Viability (%) ([1]; Table 3 patient 8, Tay-Sachs fibroblasts, 100 μM): 0% | Decrease of Cell Viability (%) ([1]; Table 3 patient 9, Tay-Sachs fibroblasts, 50 μM): 0% | Decrease of Cell Viability (%) ([1]; Table 3 patient 9, Tay-Sachs fibroblasts, 100 μM): N.S. | Decrease of Cell Viability (%) ([1]; Table 3 patient 10, Gaucher fibroblasts, 50 μM): 0% | Decrease of Cell Viability (%) ([1]; Table 3 patient 10, Gaucher fibroblasts, 100 μM): 24* % | Decrease of Cell Viability (%) ([1]; Table 3 patient 11, Niemann-Pick AB fibroblasts, 50 μM): 0% | Decrease of Cell Viability (%) ([1]; Table 3 patient 11, Niemann-Pick AB fibroblasts, 100 μM): 0% | Decrease of Cell Viability (%) ([1]; Table 3 patient 12, Hurler fibroblasts, 50 μM): 0% | Decrease of Cell Viability (%) ([1]; Table 3 patient 12, Hurler fibroblasts, 100 μM): 0% | Decrease of Cell Viability (%) ([1]; Table 3 patient 13, Fabry fibroblasts, 50 μM): 0% | Decrease of Cell Viability (%) ([1]; Table 3 patient 13, Fabry fibroblasts, 100 μM): 0% | Increase in exocytosis (%), Median ([2]; 50 μM): 0% | Increase in exocytosis (%), Median ([2]; 100 μM): 0% | Increase in exocytosis (%) ([2]; Table 4 patient 1, Sanfilippo B fibroblasts, 50 μM): 0% | Increase in exocytosis (%) ([2]; Table 4 patient 1, Sanfilippo B fibroblasts, 100 μM): 257* % | Increase in exocytosis (%) ([2]; Table 4 patient 2, Sanfilippo B fibroblasts, 50 μM): N.S. | Increase in exocytosis (%) ([2]; Table 4 patient 2, Sanfilippo B fibroblasts, 100 μM): N.S. | Increase in exocytosis (%) ([2]; Table 4 patient 3, Sanfilippo B fibroblasts, 50 μM): N.S. | Increase in exocytosis (%) ([2]; Table 4 patient 3, Sanfilippo B fibroblasts, 100 μM): N.S. | Increase in exocytosis (%) ([2]; Table 4 patient 4, Sanfilippo B fibroblasts, 50 μM): N.S. | Increase in exocytosis (%) ([2]; Table 4 patient 4, Sanfilippo B fibroblasts, 100 μM): 0% | Increase in exocytosis (%) ([2]; Table 4 patient 5, Sanfilippo A fibroblasts, 50 μM): 0% | Increase in exocytosis (%) ([2]; Table 4 patient 5, Sanfilippo A fibroblasts, 100 μM): 0% | Increase in exocytosis (%) ([2]; Table 4 patient 6, Sanfilippo A fibroblasts, 50 μM): N.S. | Increase in exocytosis (%) ([2]; Table 4 patient 6, Sanfilippo A fibroblasts, 100 μM): N.S. | Increase in exocytosis (%) ([2]; Table 4 patient 7, Sanfilippo A fibroblasts, 50 μM): N.S. | Increase in exocytosis (%) ([2]; Table 4 patient 7, Sanfilippo A fibroblasts, 100 μM): 0% | Increase in exocytosis (%) ([2]; Table 4 patient 8, Tay-Sachs fibroblasts, 50 μM): N.S. | Increase in exocytosis (%) ([2]; Table 4 patient 8, Tay-Sachs fibroblasts, 100 μM): 0% | Increase in exocytosis (%) ([2]; Table 4 patient 9, Tay-Sachs fibroblasts, 50 μM): N.S. | Increase in exocytosis (%) ([2]; Table 4 patient 9, Tay-Sachs fibroblasts, 100 μM): 0% | Increase in exocytosis (%) ([2]; Table 4 patient 10, Gaucher fibroblasts, 50 μM): N.S. | Increase in exocytosis (%) ([2]; Table 4 patient 10, Gaucher fibroblasts, 100 μM): 0% | Increase in exocytosis (%) ([2]; Table 4 patient 11, Niemann-Pick AB fibroblasts, 50 μM): N.S. | Increase in exocytosis (%) ([2]; Table 4 patient 11, Niemann-Pick AB fibroblasts, 100 μM): 0% | Increase in exocytosis (%) ([2]; Table 4 patient 12, Hurler fibroblasts, 50 μM): N.S. | Increase in exocytosis (%) ([2]; Table 4 patient 12, Hurler fibroblasts, 100 μM): N.S. | Increase in exocytosis (%) ([2]; Table 4 patient 13, Fabry fibroblasts, 50 μM): N.S. | Increase in exocytosis (%) ([2]; Table 4 patient 13, Fabry fibroblasts, 100 μM): 0% | cell cultures with significantly increased lysosomal exocytosis ([2]; thirteen patient fibroblast cultures, 50 and 100 μM, 72 hours): one of the tested cell cultures | anti-androgenic activity (androgen receptors): exclusively found in the (R)-enantiomer
